# Literature values as cited in PubChem BioAssay AID1259409 (Chemical Carcinogenesis Research Information System (CCRIS), 2018).
# Test system: rodent chemically induced tumor inhibition, incidence and multiplicity
# Experiment: CCRIS tumor inhibitor studies
# Conditions: Route [Inhibitor]: ORAL, Promoter: NONE USED
structure (smiles),measurement,setting,value
CC1=C(/C=C/C(C)=C/C=C/C(C)=C/C(=O)Nc2ccc(O)cc2)C(C)(C)CCC1,"tumour outcome (control, treated, inhibition, significance)","Carcinogen: N-NITROSOBIS(2-OXYPROPYL)AMINE, 60599-38-4, Dose [Inhibitor]: 0.05, 0.1 OR 0.2 MILLIMOLAR/KG DIET FOR 32 WK STARTING 1 WK AFTER THE CARCINOGEN DOSE (STUDY DURATION: 33 WK), Species: HAMSTER, Strain/Sex: SYRIAN/MALE, Target Tissue: Type of Lesion: LUNG: ADENOMA, Dose [Carcinogen]: 40 MG/KG ONCE","1/12 (8%), 2/21 (10%), -25%, not significant"
same,"tumour outcome (control, treated, inhibition, significance)","Carcinogen: N-NITROSOBIS(2-OXYPROPYL)AMINE, 60599-38-4, Dose [Inhibitor]: 0.05, 0.1 OR 0.2 MILLIMOLAR/KG DIET FOR 32 WK STARTING 1 WK AFTER THE CARCINOGEN DOSE (STUDY DURATION: 33 WK), Species: HAMSTER, Strain/Sex: SYRIAN/MALE, Target Tissue: Type of Lesion: PANCREAS: ADENOMA, Dose [Carcinogen]: 40 MG/KG ONCE","12/12 (100%), 21/21 (100%), 0%, not significant"
same,"tumour outcome (control, treated, inhibition, significance)","Carcinogen: N-NITROSOBIS(2-OXYPROPYL)AMINE, 60599-38-4, Dose [Inhibitor]: 0.05, 0.1 OR 0.2 MILLIMOLAR/KG DIET FOR 32 WK STARTING 1 WK AFTER THE CARCINOGEN DOSE (STUDY DURATION: 33 WK), Species: HAMSTER, Strain/Sex: SYRIAN/MALE, Target Tissue: Type of Lesion: PANCREAS: CARCINOMA, Dose [Carcinogen]: 40 MG/KG ONCE","6/12 (50%), 13/21 (62%), -24%, not significant"
same,"tumour outcome (control, treated, inhibition, significance)","Carcinogen: NONE USED, Dose [Inhibitor]: 1 MILLIMOLAR IN DIET DAILY FOR 39 WK STARTING AT 2 MO OF AGE THROUGH THE END OF THE STUDY (STUDY DURATION: 39 WK), Species: MOUSE, Strain/Sex: C3H/FEMALE, Target Tissue: Type of Lesion: MAMMARY GLAND: ADENOCARCINOMA","83/98 (85%), 71/100 (71%), 16%, not significant"
same,"tumour outcome (control, treated, inhibition, significance)","Carcinogen: NONE USED, Dose [Inhibitor]: 1 MILLIMOLAR IN DIET FOR 14 WK STARTING AT 4-6 MO OF AGE THROUGH THE END OF THE STUDY (STUDY DURATION: 14 WK), Species: MOUSE, Strain/Sex: C3H/FEMALE, Target Tissue: Type of Lesion: MAMMARY GLAND: ADENOCARCINOMA","54/78 (69%), 62/78 (80%), -16%, not significant"
same,"tumour outcome (control, treated, inhibition, significance)","Carcinogen: NONE USED, Dose [Inhibitor]: 1 MILLIMOLAR IN DIET FOR 39 WK STARTING AT 2 MO OF AGE THROUGH THE END OF THE STUDY (STUDY DURATION: 39 WK), Species: MOUSE, Strain/Sex: C3H/FEMALE, Target Tissue: Type of Lesion: MAMMARY GLAND: ADENOCARCINOMA","83/98 (85%), 71/100 (71%), 16%, not significant"
same,"tumour outcome (control, treated, inhibition, significance)","Carcinogen: NONE USED, Dose [Inhibitor]: 1.0 MM/KG IN DIET DAILY FOR 14 WK STARTING AT 4-6 MO OF AGE THROUGH THE END OF THE STUDY (STUDY DURATION: 14 WK), Species: MOUSE, Strain/Sex: C3H/FEMALE, Target Tissue: Type of Lesion: MAMMARY GLAND: ADENOCARCINOMA","54/78 (69%), 62/78 (80%), -16%, not significant"
same,"tumour outcome (control, treated, inhibition, significance)","Carcinogen: NONE USED, Dose [Inhibitor]: 783 MG/KG DIET DAILY FOR 54 WK (STUDY DURATION: 54 WK), Species: RAT, Strain/Sex: ACI/MALE, Target Tissue: Type of Lesion: ADRENAL GLAND: TUMOR","15/43 (35%), 18/43 (42%), -20%, not significant"
same,"tumour outcome (control, treated, inhibition, significance)","Carcinogen: NONE USED, Dose [Inhibitor]: 783 MG/KG DIET DAILY FOR 54 WK (STUDY DURATION: 54 WK), Species: RAT, Strain/Sex: ACI/MALE, Target Tissue: Type of Lesion: PANCREAS: ADENOMA","1/40 (3%), 5/44 (11%), -267%, not significant"
same,"tumour outcome (control, treated, inhibition, significance)","Carcinogen: NONE USED, Dose [Inhibitor]: 783 MG/KG DIET DAILY FOR 54 WK (STUDY DURATION: 54 WK), Species: RAT, Strain/Sex: ACI/MALE, Target Tissue: Type of Lesion: PITUITARY GLAND: ADENOMA OR CARCINOMA","20/39 (51%), 19/42 (45%), 12%, not significant"
same,"tumour outcome (control, treated, inhibition, significance)","Carcinogen: NONE USED, Dose [Inhibitor]: 783 MG/KG DIET DAILY FOR 54 WK (STUDY DURATION: 54 WK), Species: RAT, Strain/Sex: ACI/MALE, Target Tissue: Type of Lesion: PROSTATE GLAND: ADENOMA OR CARCINOMA","19/44 (43%), 11/40 (28%), 35%, not significant"
same,"tumour outcome (control, treated, inhibition, significance)","Carcinogen: NONE USED, Dose [Inhibitor]: 783 MG/KG DIET DAILY FOR 54 WK (STUDY DURATION: 54 WK), Species: RAT, Strain/Sex: ACI/MALE, Target Tissue: Type of Lesion: SKIN: TUMORS","12/45 (27%), 3/45 (7%), 74%, p<0.025"
same,"tumour outcome (control, treated, inhibition, significance)","Carcinogen: NONE USED, Dose [Inhibitor]: 783 MG/KG DIET DAILY FOR 54 WK (STUDY DURATION: 54 WK), Species: RAT, Strain/Sex: ACI/MALE, Target Tissue: Type of Lesion: TESTES: INTERSTITIAL CELL TUMOR","21/45 (47%), 24/44 (55%), -17%, not significant"
